The term IC50 denotes the concentration at which inhibition is half-maximal.

Entries after “also recorded” stand apart in the source; their conditions may differ. Like-named read-outs stand apart in the source and are kept apart here.

Consider 3 molecules from patent publication US11628159B2, “Cell-protective compounds and their use” (ETH ZURICH, priority 2017, dated 2023).

One experiment deals with T1, GRK2 (Homo sapiens, UniProt P25098).
T1 construct: fused on or other part: hexahistidine tag
T1 sequence (P25098 1-669 limits assumed): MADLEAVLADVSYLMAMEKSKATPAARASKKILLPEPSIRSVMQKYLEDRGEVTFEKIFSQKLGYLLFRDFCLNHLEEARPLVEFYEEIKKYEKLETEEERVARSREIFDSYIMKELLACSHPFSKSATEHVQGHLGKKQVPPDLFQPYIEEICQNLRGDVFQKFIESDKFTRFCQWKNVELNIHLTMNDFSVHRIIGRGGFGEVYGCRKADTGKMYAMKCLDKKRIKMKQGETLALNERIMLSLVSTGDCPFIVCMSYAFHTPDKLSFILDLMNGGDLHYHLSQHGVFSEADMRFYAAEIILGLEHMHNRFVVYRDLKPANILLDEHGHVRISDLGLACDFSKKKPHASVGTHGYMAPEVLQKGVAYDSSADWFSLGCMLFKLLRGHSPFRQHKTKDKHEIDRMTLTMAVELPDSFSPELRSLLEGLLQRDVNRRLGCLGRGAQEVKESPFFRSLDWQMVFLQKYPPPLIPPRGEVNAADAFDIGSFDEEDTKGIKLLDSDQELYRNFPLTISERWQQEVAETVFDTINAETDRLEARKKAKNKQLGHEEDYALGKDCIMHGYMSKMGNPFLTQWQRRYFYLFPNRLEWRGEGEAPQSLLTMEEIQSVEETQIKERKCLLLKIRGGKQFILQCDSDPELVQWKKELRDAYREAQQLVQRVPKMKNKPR
Briefly: In vitro phosphorylation assay: GRK2-mediated phosphorylation of SRSF1 with purified proteins. It is filed as biochemical. The settings on record: for IC50: purified proteins. As to the method:
The GRK2-mediated phosphorylation of SRSF1 was determined with purified proteins in the presence of increasing concentrations of paroxetine or different small molecule compounds. SRSF1 phosphorylation is presented as % of control, which is the SRSF1 phosphorylation in the absence of inhibitor.
Recombinant human GRK2 protein and GRK2-S670A protein was expressed in and purified from Spodoptera frugiperda (Sf9) cells by the baculoviral expression system. […] Sf9 cells were infected with recombinant baculoviruses at an MOI of 2-3, 48 h after infection cells were harvested by centrifugation, lysed with lysis buffer (300 mM NaCl, 50 mM HEPES, pH 7.5 supplemented with 1% NP40, 1 mM PMSF and protease inhibitor cocktail) and applied to Ni-NTA chromatography. After overnight incubation at 4° C., unbound proteins were removed by washing with lysis buffer (20× column volumes) followed by 1× column volume of 30 mM imidazole-containing lysis buffer. Bound GRK2 was eluted by 300 mM imidazole in lysis buffer, desalted by PD10 column chromatograpy, supplemented with 20% glycerol and stored at −80° C. for further use.
Protein-expressing bacteria were collected by centrifugation, frozen in liquid nitrogen and thawed on ice in lysis buffer (8 M urea, 300 mM NaCl, 50 mM HEPES, 10 mM imidazole, pH 7.5), which was supplemented with 2-mercaptoethanol (0.7 ml/L) freshly before use (10 ml of lysis buffer for a bacterial pellet from 200 ml of culture medium). The bacterial lysate was incubated for 1 h at room temperature, sonicated and centrifuged for 15 min at 4000×g at 4° C. The supernatant was applied to the Ni-NTA column matrix prewashed with 20 ml of lysis buffer. […] Finally, proteins were eluted with elution buffer (300 mM NaCl, 50 mM HEPES, 500 mM imidazole, pH 7.5, supplemented freshly with 0.7 ml/L 2-mercaptoethanol). Buffer of eluted proteins was exchanged to 150 mM NaCl, 50 mM HEPES (pH 7.5) by PD10 column chromatography.
Recombinant proteins were used for an in vitro phosphorylation assay with GRK2 and GRK2-S670A. […] After an incubation for 30 min at 30° C., the reaction was stopped by the addition of 5×SDS-Laemmli buffer. Proteins were separated by SDS-PAGE and subjected to autoradiography. […] After an incubation for 30-60 min at 30° C., the phosphorylation was stopped by the addition of 5 volumes of ice-cold reaction buffer. The reaction mixtures were immediately applied to glass fiber filters (GF/C, WHATMAN™, GE Healthcare Life Sciences, Glattbrugg, Switzerland). After three washing steps with 5 ml of reaction buffer, filter-bound radioactivity was determined in a β-counter.

The test system of experiment [1] is GRK2-mediated phosphorylation of SRSF1/Srsf1. Nature of the experiment: Immunoblot of SRSF1/Srsf1 phosphorylation in isolated neonatal cardiomyocytes from Tg-SRSF1 mice. The class given is cell-based, mouse. The settings on record: 10 microM, 60 h, relative to vehicle. As to the method:
A, The GRK2-mediated phosphorylation of SRSF1/Srsf1 was determined by immunoblot in lysates from isolated neonatal cardiomyocytes from Tg-SRSF1 mice after incubation for 60 h with 10 microM of paroxetine, 1-(1,3-benzodioxol-5-yl)-4-(cyclopropane-carbonyl)-3-hydroxy-2-phenyl-2H-pyrrol-5-one (“Compound-1”) or 4-(1,3-benzodioxol-5-yl)pyrimidine (“Compound-4”) relative to vehicle-treated control (“C”) cardiomyocytes. B, Immunoblot detection of GRK2-mediated phosphorylation of SRSF1 (pSRSF1) was performed with lysates from HEK (human embryonic kidney) cells incubated for 60 h with 10 microM of 4-(1,3-benzodioxol-5-yl)pyrimidine (“Compound-4”), 1-(1,3-benzodioxol-5-ylmethyl)-5-(4-chlorophenyl)-2-methyl-pyrrole-3-carboxamide (“Compound-24”) or (4R)-N3-(1,3-benzodioxol-5-ylmethyl)-N4-[[3-(trifluoromethyl)phenyl]-methyl]pyrrolidine-3,4-dicarboxamide (“Compound-5”) relative to vehicle-treated controls (“C”).
Briefly, the hearts were dissected out from 2-3 day-old mice, atria and aorta were removed, and the hearts were transferred into sterile buffer A (137 mM NaCl, 5.36 mM KCl, 0.81 mM MgSO4, 5.55 mM dextrose, 0.44 mM KH2PO4, 0.34 mM Na2HPO4, 20 mM HEPES, 100 U/ml penicillin, 100 microg/ml streptomycin, pH 7.4). […]
For orientation: In western blotting, separated proteins are transferred to a membrane and probed.

[2] abbreviates: read-out: IC50 value, inhibition of GRK2-mediated SRSF1 phosphorylation.

Turning to `O=C(C1=C(O)C(c2ccccc2)N(c2ccc3c(c2)OCO3)C1=O)C1CC1` (stereo not shown) [Compound-1, 1-(1,3-benzodioxol-5-yl)-4-(cyclopropane-carbonyl)-3-hydroxy-2-phenyl-2H-pyrrol-5-one], at GRK2 (GRK2-mediated SRSF1 phosphorylation), the “IC50 value lower than that of paroxetine” value is “more than 5 fold”. Further, the IC50 on GRK2 (n=4, read-out: IC50 value, inhibition of GRK2-mediated phosphorylation of SRSF1) came out at 0.45 µM; at GRK2 (setting [2]), 0.45 µM. Also, the “SRSF1/Srsf1 phosphorylation in isolated Tg-SRSF1 cardiomyocytes” value in experiment [1] was “decreased”.

For `c1cc(-c2ccc3c(c2)OCO3)ncn1` [Compound-4, 4-(1,3-benzodioxol-5-yl)pyrimidine], the half-maximal inhibitory concentration (IC50) at GRK2 (setting [2]) came to 1.87 µM. Moreover, the “SRSF1/Srsf1 phosphorylation in isolated Tg-SRSF1 cardiomyocytes” value in experiment [1] is listed as “decreased”.

B1: RKIP: raf kinase inhibitor protein, a dual-specific GRK2 and Raf kinase inhibitor (protein, UniProt P30086 2-187, looked up)
Phosphatidylethanolamine-bindi …: PVDLSKWSGPLSLQEVDEQPQHPLHVTYAGAAVDELGKVLTPTQVKNRPTSISWDGLDSGKLYTLVLTDPDAPSRKDPKYREWHHFLVVNMKGNDISSGTVLSDYVGSGPPKGTGLHRYVWLVYEQDRPLKCDEPILSNRSGDHRGKFKVASFRKKYELRAPVAGTCYQAEWDDYVPKLYEQLSGK
Turning to B1, the “Inhibition of the in vitro phosphorylation of SRSF1 by GRK2” value with GRK2 (result in words) is on record as “does not inhibit; also recorded: did not inhibit”.
